Source: patent US8106205B2, “N[S(4-aryl-triazol-3-yl)α-mercaptoacetyl]p-amino benzoic acids as HIV reverse transcriptase inhibitors” (priority 2004, dated 2012)
pEC50, pIC50: −log10 of the molar value. Like-named read-outs stand apart in the source and are kept apart here.

Columns and labels:
wild type HIV RT = wild type HIV RT (Human immunodeficiency virus type 1 group M subtype B, UniProt P04585); experiment: IC50 against wild-type HIV reverse transcriptase; type: biochemical
Method: Compounds of the invention were tested against the wild-type and four mutant HIV reverse transcriptases. The results are listed in Table 1 and Table 2 as EC50 (nM) and IC50 (nM). In Tables 1 and 2, A represents <50 nM, B is between 50 and 100 nM, and C is >100 nM. ND is not determined. […]

wild-type (WT) HIV = experiment: EC50 against wild-type HIV; type: cell-based; settings: for EC50: Human immunodeficiency virus 1, read-out: EC50 WT (nM)
[1] = Table 2, wild-type, read-out: EC50 WT
[2] = Human immunodeficiency virus 1, read-out: EC50 WT

NS(=O)(=O)c1ccc(NC(=O)CSc2nnc(Br)n2-c2c(Cl)cc(C3CCC3)c3ccccc23)c(Cl)c1 (single isomer, unassigned) [Compound 68]
pIC50 (wild type HIV RT; Table 2, wild-type RT): > 7.30 | pEC50 (wild-type (WT) HIV; [1]): > 7.30

NS(=O)(=O)c1ccc(NC(=O)CSc2nnc(Br)n2-c2c(Cl)cc(C3CCC3)c3ccccc23)c(Cl)c1 (single isomer, unassigned) [Compound 69]
pIC50 (wild type HIV RT; Table 2, wild-type RT): > 7.30 | pEC50 (wild-type (WT) HIV; [1]): > 7.30

COc1ccc2c(C)ccc(-n3c(Br)nnc3SCC(=O)Nc3ccc(C(=O)O)cc3Cl)c2c1 [Compound 15]
pIC50 (wild type HIV RT; Table 1, wild-type RT): > 7.30 | EC50 (wild-type (WT) HIV): < 50 nM

Cc1cc(C2CC2)cc(Cl)c1-n1c(Br)nnc1SCC(=O)Nc1ccc(C(=O)O)cc1Cl [Compound 20]
pIC50 (wild type HIV RT; Table 1, wild-type RT): > 7.30 | EC50 (wild-type (WT) HIV): < 50 nM

CC(Sc1nnc(Br)n1-c1ccc(C2CC2)c2ccccc12)C(=O)Nc1ccc(S(N)(=O)=O)cc1Cl (centres unmarked) [Compound 44]
pIC50 (wild type HIV RT; Table 2, wild-type RT): > 7.30 | pEC50 (wild-type (WT) HIV; [2]): > 7.30

NS(=O)(=O)c1ccc(NC(=O)CSc2nnc(Br)n2-c2ccc(C3CC3)c3ccccc23)c(Cl)c1 [Compound 45]
pIC50 (wild type HIV RT; Table 2, wild-type RT): > 7.30 | pEC50 (wild-type (WT) HIV; [1]): > 7.30

NS(=O)(=O)c1ccc(NC(=O)CSc2nnc(Br)n2-c2ccc(C3CC3)cc2)c(Cl)c1 [Compound 46]
pIC50 (wild type HIV RT; Table 2, wild-type RT): > 7.30 | pEC50 (wild-type (WT) HIV; [2]): > 7.30

CC(=O)OC(C)OC(=O)NS(=O)(=O)c1ccc(NC(=O)CSc2nnc(Br)n2-c2ccc(C3CC3)c3ccccc23)c(Cl)c1 (centres unmarked) [Compound 47]
pIC50 (wild type HIV RT; Table 2, wild-type RT): > 7.30 | pEC50 (wild-type (WT) HIV; [1]): > 7.30

CC(=O)NS(=O)(=O)c1ccc(NC(=O)CSc2nnc(Br)n2-c2ccc(C3CC3)c3ccccc23)c(Cl)c1 [Compound 48]
pIC50 (wild type HIV RT; Table 2, wild-type RT): > 7.30 | pEC50 (wild-type (WT) HIV; [1]): > 7.30

CCc1ccc(-n2c(Br)nnc2SCC(=O)Nc2ccc(S(N)(=O)=O)cc2Cl)c2c1CCCC2 [Compound 50]
pIC50 (wild type HIV RT; Table 2, wild-type RT): > 7.30 | pEC50 (wild-type (WT) HIV; [1]): > 7.30

Cc1cc(S(N)(=O)=O)ccc1NC(=O)CSc1nnc(Br)n1-c1ccc(C)c2c1CCCC2 [Compound 51]
pIC50 (wild type HIV RT; Table 2, wild-type RT): > 7.30 | pEC50 (wild-type (WT) HIV; [1]): > 7.30

Cc1ccc2c(C)ccc(-n3c(Br)nnc3SCC(=O)Nc3ccc(S(N)(=O)=O)cc3Br)c2c1 [Compound 52]
pIC50 (wild type HIV RT; Table 2, wild-type RT): > 7.30 | pEC50 (wild-type (WT) HIV; [1]): > 7.30

Cc1cc(C)c2ccccc2c1-n1c(CF)nnc1SCC(=O)Nc1ccc(S(N)(=O)=O)cc1Cl [Compound 53]
pIC50 (wild type HIV RT; Table 2, wild-type RT): > 7.30 | pEC50 (wild-type (WT) HIV; [1]): > 7.30

Cc1cc(C)c(-n2c(SCC(=O)Nc3ccc(S(N)(=O)=O)cc3Cl)nnc2C(F)(F)F)c2c1CCCC2 [Compound 54]
pIC50 (wild type HIV RT; Table 2, wild-type RT): > 7.30 | pEC50 (wild-type (WT) HIV; [2]): > 7.30

CCCc1ccc(-n2c(Br)nnc2SCC(=O)Nc2ccc(S(N)(=O)=O)cc2Cl)c2ccccc12 [Compound 55]
pIC50 (wild type HIV RT; Table 2, wild-type RT): > 7.30 | pEC50 (wild-type (WT) HIV; [1]): > 7.30

CCCc1ccc(-n2c(Br)nnc2SCC(=O)Nc2ccc(S(N)(=O)=O)cc2C)c2ccccc12 [Compound 56]
pIC50 (wild type HIV RT; Table 2, wild-type RT): > 7.30 | pEC50 (wild-type (WT) HIV; [1]): > 7.30

CCc1ccc(-n2c(Br)nnc2SCC(=O)Nc2ccc(S(N)(=O)=O)cc2Cl)c2ccccc12 [Compound 57]
pIC50 (wild type HIV RT; Table 2, wild-type RT): > 7.30 | pEC50 (wild-type (WT) HIV; [1]): > 7.30

CCCC(=O)NS(=O)(=O)c1ccc(NC(=O)CSc2nnc(Br)n2-c2ccc(C3CC3)c3ccccc23)c(Cl)c1 [Compound 58]
pIC50 (wild type HIV RT; Table 2, wild-type RT): > 7.30 | pEC50 (wild-type (WT) HIV; [2]): > 7.30

N[C@@H](CC(=O)NS(=O)(=O)c1ccc(NC(=O)CSc2nnc(Cl)n2-c2ccc(C3CC3)c3ccccc23)c(Cl)c1)C(=O)O [Compound 59]
pIC50 (wild type HIV RT; Table 2, wild-type RT): > 7.30 | pEC50 (wild-type (WT) HIV; [1]): > 7.30

NCCC[C@@H](N)C(=O)NS(=O)(=O)c1ccc(NC(=O)CSc2nnc(Br)n2-c2ccc(C3CC3)c3ccccc23)c(Cl)c1 [Compound 60]
pIC50 (wild type HIV RT; Table 2, wild-type RT): > 7.30 | pEC50 (wild-type (WT) HIV; [1]): > 7.30

Cc1cc(C2CC2)ccc1-n1c(Br)nnc1SCC(=O)Nc1ccc(S(N)(=O)=O)cc1Cl [Compound 61]
pEC50 (wild-type (WT) HIV; [1]): > 7.30

NCCC(N)C(=O)NS(=O)(=O)c1ccc(NC(=O)CSc2nnc(Br)n2-c2ccc(C3CC3)c3ccccc23)c(Cl)c1 (centres unmarked) [Compound 62]
pIC50 (wild type HIV RT; Table 2, wild-type RT): > 7.30 | pEC50 (wild-type (WT) HIV; [1]): > 7.30

N[C@@H](CC(=O)NS(=O)(=O)c1ccc(NC(=O)CSc2nnc(Br)n2-c2ccc(C3CC3)c3ccccc23)c(Cl)c1)C(=O)O [Compound 63]
pIC50 (wild type HIV RT; Table 2, wild-type RT): > 7.30 | pEC50 (wild-type (WT) HIV; [1]): > 7.30

N[C@@H](CCC(=O)NS(=O)(=O)c1ccc(NC(=O)CSc2nnc(Br)n2-c2ccc(C3CC3)c3ccccc23)c(Cl)c1)C(=O)O [Compound 64]
pIC50 (wild type HIV RT; Table 2, wild-type RT): > 7.30 | pEC50 (wild-type (WT) HIV; [1]): > 7.30

NS(=O)(=O)c1ccc(NC(=O)CSc2nnc(Cl)n2-c2ccc(C3CC3)c3ccccc23)c(Cl)c1 [Compound 65]
pIC50 (wild type HIV RT; Table 2, wild-type RT): > 7.30 | pEC50 (wild-type (WT) HIV; [1]): > 7.30

NS(=O)(=O)c1ccc(NC(=O)CSc2nnc(Br)n2-c2ccc(C3CC3)cc2OC(F)(F)F)c(Cl)c1 [Compound 66]
pIC50 (wild type HIV RT; Table 2, wild-type RT): > 7.30 | pEC50 (wild-type (WT) HIV; [2]): > 7.30

COCCC(=O)NS(=O)(=O)c1ccc(NC(=O)CSc2nnc(Br)n2-c2ccc(C3CC3)c3ccccc23)c(Cl)c1 [Compound 67]
pIC50 (wild type HIV RT; Table 2, wild-type RT): > 7.30 | pEC50 (wild-type (WT) HIV; [2]): > 7.30

Cc1cc(C2CC2)cc(Cl)c1-n1c(Br)nnc1SCC(=O)Nc1ccc(S(N)(=O)=O)cc1Cl [Compound 70]
pIC50 (wild type HIV RT; Table 2, wild-type RT): > 7.30 | pEC50 (wild-type (WT) HIV; [2]): > 7.30

O=C(O)CCC(=O)NS(=O)(=O)c1ccc(NC(=O)CSc2nnc(Br)n2-c2ccc(C3CC3)c3ccccc23)c(Cl)c1 [Compound 71]
pIC50 (wild type HIV RT; Table 2, wild-type RT): > 7.30 | pEC50 (wild-type (WT) HIV; [1]): 7.00 to 7.30

Cc1cc(S(N)(=O)=O)ccc1NC(=O)CSc1nnc(Br)n1-c1ccc(C2CCC2)c2ccccc12 [Compound 72]
pIC50 (wild type HIV RT; Table 2, wild-type RT): > 7.30 | pEC50 (wild-type (WT) HIV; [2]): > 7.30

NS(=O)(=O)c1ccc(NC(=O)CSc2nnc(Br)n2-c2ccc(C3CCC3)c3ccccc23)c(Cl)c1 [Compound 73]
pIC50 (wild type HIV RT; Table 2, wild-type RT): > 7.30 | pEC50 (wild-type (WT) HIV; [1]): > 7.30

CCCCC(=O)NS(=O)(=O)c1ccc(NC(=O)CSc2nnc(Br)n2-c2ccc(C3CC3)c3ccccc23)c(Cl)c1 [Compound 74]
pIC50 (wild type HIV RT; Table 2, wild-type RT): > 7.30 | pEC50 (wild-type (WT) HIV; [1]): > 7.30

CCCCCC(=O)NS(=O)(=O)c1ccc(NC(=O)CSc2nnc(Br)n2-c2ccc(C3CC3)c3ccccc23)c(Cl)c1 [Compound 75]
pIC50 (wild type HIV RT; Table 2, wild-type RT): > 7.30 | pEC50 (wild-type (WT) HIV; [1]): > 7.30

N#Cc1cccc2c(-n3c(SCC(=O)Nc4ccc(S(N)(=O)=O)cc4Cl)nnc3C(F)F)cccc12 [Compound 76]
pIC50 (wild type HIV RT; Table 2, wild-type RT): 7.00 to 7.30 | pEC50 (wild-type (WT) HIV; [2]): > 7.30

Cc1cc(S(N)(=O)=O)ccc1NC(=O)CSc1nnc(C(F)F)n1-c1cccc2c(C#N)cccc12 [Compound 77]
pIC50 (wild type HIV RT; Table 2, wild-type RT): < 7.00
